Assay results from patent publication US20150344540A1, “NOVEL GLP-1 RECEPTOR AGONISTS WITH CHOLESTEROL EFFLUX ACTIVITY” (NOVO NORDISK A/S, priority 2012, published 2015).
Read-outs that look alike come from different tables or passages of the source. Where a SMILES comes first, the peptide text is derived from it. [ ]: non-standard residue; d: D form. Aib = CC(C)(N)C(=O)O

Assays:
[1] = target: human GLP-1 receptor (Homo sapiens, UniProt P43220); assay: Functional GLP-1 receptor assay, in vitro potency (CRE luciferase; whole cells); format: cell-based; settings: BHK cells expressing human GLP-1 receptor
[2] = system: Mouse monocyte/macrophage cell line, RAW 264.7; assay: Cholesterol efflux assay (3H-cholesterol, macrophage cell line); format: cell-based; settings: RAW 264.7, 4 hrs incubation, 0.1% human serum albumin, ABCA1-mediated efflux
[3] = GLP1R CRE luc 1% HSA EC50 Mean Value, 1% HSA
[4] = 0% HSA, read-out: GLP1R CRE luc 0% HSA EC50 Mean Value

Chain of human GLP-1 receptor (P43220 24-463): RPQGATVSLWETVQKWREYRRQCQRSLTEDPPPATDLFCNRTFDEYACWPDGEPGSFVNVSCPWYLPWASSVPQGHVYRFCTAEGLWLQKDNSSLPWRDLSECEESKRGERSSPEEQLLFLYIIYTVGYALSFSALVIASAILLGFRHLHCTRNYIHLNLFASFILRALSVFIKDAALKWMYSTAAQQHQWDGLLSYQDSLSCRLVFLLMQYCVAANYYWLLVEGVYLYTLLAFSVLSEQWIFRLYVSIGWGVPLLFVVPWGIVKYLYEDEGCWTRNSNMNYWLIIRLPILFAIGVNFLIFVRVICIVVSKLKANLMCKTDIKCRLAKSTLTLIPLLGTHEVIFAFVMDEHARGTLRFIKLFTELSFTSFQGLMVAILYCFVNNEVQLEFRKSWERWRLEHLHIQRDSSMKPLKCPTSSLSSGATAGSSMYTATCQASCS

Row | SMILES | EC50 [1, 3] [pM] | EC50 [1, 4] [pM] | 4 h Cholesterol Efflux Emax [2] [%]
1 | CC[C@H](C)[C@H](NC(=O)[C@H](Cc1ccccc1)NC(=O)[C@H](CCC(=O)O)NC(=O)[C@H](CCCNC(=N)N)NC(=O)[C@@H](NC(=O)[C@H](C)NC(=O)[C@H](CCC(=O)O)NC(=O)[C@H](CCC(=O)O)NC(=O)[C@H](CCC(=O)O)NC(=O)[C@H](CCSC)NC(=O)[C@H](CCC(N)=O)NC(=O)[C@H](CCCCN)NC(=O)[C@H](CO)NC(=O)[C@H](CC(C)C)NC(=O)[C@H](CC(=O)O)NC(=O)[C@H](CO)NC(=O)[C@@H](NC(=O)[C@H](Cc1ccccc1)NC(=O)[C@@H](NC(=O)CNC(=O)[C@H](CCC(=O)O)NC(=O)C(C)(C)NC(=O)[C@@H](N)Cc1c[nH]cn1)[C@@H](C)O)[C@@H](C)O)C(C)C)C(=O)N[C@@H](CCC(=O)O)C(=O)N[C@@H](Cc1c[nH]c2ccccc12)C(=O)N[C@@H](CC(C)C)C(=O)N[C@@H](CCCCN)C(=O)N[C@@H](CC(N)=O)C(=O)N[C@@H](CCCCN)C(=O)NC(C)(C)C(=O)N[C@@H](CC(C)C)C(=O)N[C@@H](CCC(=O)O)C(=O)N[C@@H](Cc1ccccc1)C(=O)NCC(=O)N[C@@H](CCC(=O)O)C(=O)N[C@@H](CC(C)C)C(=O)N[C@@H](CC(C)C)C(N)=O [Compound 38, [Aib2,Glu21,Lys29,Aib30,Leu31,Glu32,Phe33,Glu35,Leu36,Leu371-Exendin-4-(1-37)-peptide amide] (H-H[Aib]EGTFTSDLSKQMEEEAVREFIEWLKNK[Aib]LEFGELL-NH2; N-terminus assumed) | 12 |  | 82
2 | CC[C@H](C)[C@H](NC(=O)[C@H](Cc1ccccc1)NC(=O)[C@H](CCC(=O)O)NC(=O)[C@H](CCCCN)NC(=O)[C@@H](NC(=O)[C@H](C)NC(=O)[C@H](CCC(=O)O)NC(=O)[C@H](CCC(=O)O)NC(=O)[C@H](CCC(=O)O)NC(=O)[C@H](CC(C)C)NC(=O)[C@H](Cc1ccc(O)cc1)NC(=O)[C@H](CO)NC(=O)[C@H](CO)NC(=O)[C@@H](NC(=O)[C@H](CC(=O)O)NC(=O)[C@H](CO)NC(=O)[C@@H](NC(=O)[C@H](Cc1ccccc1)NC(=O)[C@@H](NC(=O)CNC(=O)[C@H](CCC(=O)O)NC(=O)C(C)(C)NC(=O)[C@@H](N)Cc1c[nH]cn1)[C@@H](C)O)[C@@H](C)O)C(C)C)C(C)C)C(=O)N[C@@H](C)C(=O)N[C@@H](Cc1c[nH]c2ccccc12)C(=O)N[C@@H](CC(C)C)C(=O)N[C@H](C(=O)N[C@@H](CCC(=O)O)C(=O)N[C@@H](CCCCN)C(=O)N[C@H](C(=O)N[C@@H](CCCCN)C(=O)N[C@@H](CCC(=O)O)C(=O)N[C@@H](Cc1ccccc1)C(=O)N[C@@H](CC(C)C)C(N)=O)C(C)C)C(C)C [Compound 137, [Aib8,Glu22,Glu23,Val25,Glu34,Lys35,Val36,Lys37]-GLP-1-(7-37)-peptidyl-Glu-Phe-Leu amide] (H-H[Aib]EGTFTSDVSSYLEEEAVKEFIAWLVEKVKEFL-NH2) | 34 | 116 | 108
3 | CC[C@H](C)[C@H](NC(=O)[C@H](Cc1ccccc1)NC(=O)[C@H](CCC(=O)O)NC(=O)[C@H](CCCNC(=N)N)NC(=O)[C@@H](NC(=O)[C@H](C)NC(=O)[C@H](CCC(=O)O)NC(=O)[C@H](CCC(=O)O)NC(=O)[C@H](CCC(=O)O)NC(=O)[C@H](CCSC)NC(=O)[C@H](CCC(N)=O)NC(=O)[C@H](CCCCN)NC(=O)[C@H](CO)NC(=O)[C@H](CC(C)C)NC(=O)[C@H](CC(=O)O)NC(=O)[C@H](CO)NC(=O)[C@@H](NC(=O)[C@H](Cc1ccccc1)NC(=O)[C@@H](NC(=O)CNC(=O)[C@H](CCC(=O)O)NC(=O)C(C)(C)NC(=O)[C@@H](N)Cc1c[nH]cn1)[C@@H](C)O)[C@@H](C)O)C(C)C)C(=O)N[C@@H](CCC(=O)O)C(=O)N[C@@H](Cc1c[nH]c2ccccc12)C(=O)N[C@@H](CC(C)C)C(=O)N[C@@H](CCCCN)C(=O)N[C@@H](CC(N)=O)C(=O)N[C@@H](CCCCN)C(=O)NC(C)(C)C(=O)N[C@@H](CC(C)C)C(=O)N[C@@H](CCC(=O)O)C(=O)N[C@@H](Cc1ccccc1)C(=O)N[C@@H](CC(C)C)C(=O)N[C@@H](CCC(=O)O)C(=O)N1CCC[C@H]1C(=O)N[C@@H](CC(C)C)C(N)=O [Compound 39, [Aib2,Glu21,Lys29,Aib30,Leu31,Glu32,Phe33,Leu34,Glu35,Leu371-Exendin-4-(1-37)-peptide amide] (H-H[Aib]EGTFTSDLSKQMEEEAVREFIEWLKNK[Aib]LEFLEPL-NH2; N-terminus assumed) | 13 | 32 | 113
4 | CC[C@H](C)[C@H](NC(=O)[C@H](Cc1ccccc1)NC(=O)[C@H](CCC(=O)O)NC(=O)[C@H](CCC(N)=O)NC(=O)[C@@H](NC(=O)[C@H](C)NC(=O)[C@H](CCC(=O)O)NC(=O)CNC(=O)[C@H](CCC(=O)O)NC(=O)[C@H](CC(C)C)NC(=O)[C@H](Cc1ccc(O)cc1)NC(=O)[C@H](CO)NC(=O)[C@H](CO)NC(=O)[C@@H](NC(=O)[C@H](CC(=O)O)NC(=O)[C@H](CO)NC(=O)[C@@H](NC(=O)[C@H](Cc1ccccc1)NC(=O)[C@@H](NC(=O)CNC(=O)[C@H](CCC(=O)O)NC(=O)C(C)(C)NC(=O)[C@@H](N)Cc1c[nH]cn1)[C@@H](C)O)[C@@H](C)O)C(C)C)C(C)C)C(=O)N[C@@H](C)C(=O)N[C@@H](Cc1c[nH]c2ccccc12)C(=O)N[C@@H](CC(C)C)C(=O)N[C@H](C(=O)N[C@@H](CCC(=O)O)C(=O)N[C@@H](CCC(N)=O)C(=O)NC(C)(C)C(=O)N[C@@H](CCC(N)=O)C(=O)N[C@@H](CCC(=O)O)C(=O)N[C@@H](Cc1ccccc1)C(=O)N[C@@H](CC(C)C)C(N)=O)C(C)C [Compound 95] (H-H[Aib]EGTFTSDVSSYLEGEAVQEFIAWLVEQ[Aib]QEFL-NH2) | 40 |  | 59

Second part, led by results:

Row | EC50 [1, 3] [pM] | EC50 [1, 4] [pM] | SMILES | 4 h Cholesterol Efflux Emax [2] [%]
5 |  | 11 | CC[C@H](C)[C@H](NC(=O)[C@H](Cc1ccccc1)NC(=O)[C@H](CCC(=O)O)NC(=O)[C@H](CCCCN)NC(=O)[C@@H](NC(=O)[C@H](C)NC(=O)[C@H](CCC(=O)O)NC(=O)CNC(=O)[C@H](CCC(=O)O)NC(=O)[C@H](CC(C)C)NC(=O)[C@H](Cc1ccc(O)cc1)NC(=O)[C@H](CO)NC(=O)[C@H](CO)NC(=O)[C@@H](NC(=O)[C@H](CC(=O)O)NC(=O)[C@H](CO)NC(=O)[C@@H](NC(=O)[C@H](Cc1ccccc1)NC(=O)[C@@H](NC(=O)CNC(=O)[C@H](CCC(=O)O)NC(=O)C(C)(C)NC(=O)[C@@H](N)Cc1c[nH]cn1)[C@@H](C)O)[C@@H](C)O)C(C)C)C(C)C)C(=O)N[C@@H](C)C(=O)N[C@@H](Cc1c[nH]c2ccccc12)C(=O)N[C@@H](CC(C)C)C(=O)N[C@H](C(=O)N[C@@H](CCC(=O)O)C(=O)N[C@@H](CCCCN)C(=O)N[C@H](C(=O)N[C@@H](CCCCN)C(=O)N[C@@H](CCC(=O)O)C(=O)NCC(=O)N[C@@H](CC(C)C)C(N)=O)C(C)C)C(C)C [Compound 117, [Aib8,Glu23,Val25,Glu34,Lys35,Val36,Lys37]-GLP-1-(7-37)-peptidyl-Glu-Gly-Leu amide] (H-H[Aib]EGTFTSDVSSYLEGEAVKEFIAWLVEKVKEGL-NH2) | 114
6 | 29 |  | CC(C)C[C@H](NC(=O)[C@H](Cc1ccccc1)NC(=O)[C@H](CCC(=O)O)NC(=O)[C@H](CCCCN)NC(=O)C(C)(C)NC(=O)[C@H](CCCCN)NC(=O)[C@H](CCC(=O)O)NC(=O)[C@H](CC(C)C)NC(=O)[C@H](CC(C)C)NC(=O)[C@H](Cc1c[nH]c2ccccc12)NC(=O)[C@H](CCC(N)=O)NC(=O)[C@@H](NC(=O)[C@H](Cc1ccccc1)NC(=O)[C@H](CCC(=O)O)NC(=O)[C@H](CCCNC(=N)N)NC(=O)[C@@H](NC(=O)[C@H](C)NC(=O)[C@H](CCC(=O)O)NC(=O)CNC(=O)[C@H](CCC(=O)O)NC(=O)[C@H](CC(C)C)NC(=O)[C@H](Cc1ccc(O)cc1)NC(=O)[C@H](CO)NC(=O)[C@H](CO)NC(=O)[C@@H](NC(=O)[C@H](CC(=O)O)NC(=O)[C@H](CO)NC(=O)[C@@H](NC(=O)[C@H](Cc1ccccc1)NC(=O)[C@@H](NC(=O)CNC(=O)[C@H](CCC(=O)O)NC(=O)C(C)(C)NC(=O)[C@@H](N)Cc1c[nH]cn1)[C@@H](C)O)[C@@H](C)O)C(C)C)C(C)C)C(C)C)C(N)=O [Compound 80, [Aib8,Glu23,Val25,Arq26,Val29,Gln30,Leu33,Glu34,Lys35,Aib36,Lys37]-GLP-1-(7-37)-peptidyl-Glu-Phe-Leu amide] (H-H[Aib]EGTFTSDVSSYLEGEAVREFVQWLLEK[Aib]KEFL-NH2) | 108
7 | 62 |  | CC[C@H](C)[C@H](NC(=O)[C@H](Cc1ccccc1)NC(=O)[C@H](CCC(=O)O)NC(=O)[C@H](CCCCN)NC(=O)[C@@H](NC(=O)[C@H](C)NC(=O)[C@H](CCC(=O)O)NC(=O)CNC(=O)[C@H](CCC(=O)O)NC(=O)[C@H](CC(C)C)NC(=O)[C@H](Cc1ccc(O)cc1)NC(=O)[C@H](CO)NC(=O)[C@H](CO)NC(=O)[C@@H](NC(=O)[C@H](CC(=O)O)NC(=O)[C@H](CO)NC(=O)[C@@H](NC(=O)[C@H](Cc1ccccc1)NC(=O)[C@@H](NC(=O)CNC(=O)[C@H](CCC(=O)O)NC(=O)C(C)(C)NC(=O)[C@@H](N)Cc1c[nH]cn1)[C@@H](C)O)[C@@H](C)O)C(C)C)C(C)C)C(=O)N[C@@H](C)C(=O)N[C@@H](Cc1c[nH]c2ccccc12)C(=O)N[C@@H](CC(C)C)C(=O)N[C@H](C(=O)N[C@@H](CCC(=O)O)C(=O)N[C@@H](CCCCN)C(=O)NC(C)(C)C(=O)N[C@@H](CCCCN)C(=O)N[C@@H](Cc1c[nH]cn1)C(=O)N[C@@H](Cc1ccccc1)C(=O)N[C@@H](CC(C)C)C(N)=O)C(C)C [Compound 31, [Aib8,Glu23,Val25,Glu34,Lys35,Aib36,Lys37]-GLP-1-(7-37)-peptidyl-His-Phe-Leu amide] (H-H[Aib]EGTFTSDVSSYLEGEAVKEFIAWLVEK[Aib]KHFL-NH2) | 84
